Numbering of substitutions follows the chain as printed.
Legend:
Assay type in all cases: cell-based
[1] = target: T1, human mutant β-galactosidase P263S (Homo sapiens, UniProt P16278, P263S); assay: Mutant β-galactosidase activity in model cells, 4 days culture
T1 construct: expressed in transfected cells; host or cells: SV40-immortalized skin fibroblasts of a β-galactosidase-deficient knockout mouse
T1 sequence (P16278 29-677 P263S): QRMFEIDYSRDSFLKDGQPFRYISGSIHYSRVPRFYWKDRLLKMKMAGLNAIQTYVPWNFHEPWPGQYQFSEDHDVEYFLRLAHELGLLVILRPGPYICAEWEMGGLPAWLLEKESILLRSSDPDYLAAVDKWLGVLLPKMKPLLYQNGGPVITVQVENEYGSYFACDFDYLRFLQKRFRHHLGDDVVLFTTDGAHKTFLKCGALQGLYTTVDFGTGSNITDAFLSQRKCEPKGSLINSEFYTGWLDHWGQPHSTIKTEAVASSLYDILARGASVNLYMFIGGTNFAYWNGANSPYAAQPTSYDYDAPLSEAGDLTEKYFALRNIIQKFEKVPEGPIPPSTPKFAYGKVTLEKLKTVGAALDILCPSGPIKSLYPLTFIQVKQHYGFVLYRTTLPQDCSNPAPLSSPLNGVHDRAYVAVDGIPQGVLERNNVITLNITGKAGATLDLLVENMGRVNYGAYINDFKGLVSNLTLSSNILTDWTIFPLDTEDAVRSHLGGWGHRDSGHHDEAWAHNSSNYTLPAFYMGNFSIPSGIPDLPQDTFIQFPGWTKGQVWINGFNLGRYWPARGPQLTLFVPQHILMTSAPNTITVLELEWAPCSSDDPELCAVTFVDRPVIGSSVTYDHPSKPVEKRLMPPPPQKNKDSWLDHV
From the text: (§1) Cultured skin fibroblasts of a β-galactosidase-deficient knockout mouse was immortalized by introducing an SV40 viral gene, and enzyme genes integrated into pSV2neo and an expression vector were also introduced simultaneously, thereby establishing a model cell (Brain Dev., 23(5), 284-287, 2001). The genes used are human normal (GP8) and mutant β-galactosidase gene Y316C, G123R (infantile GM1-gangliosidosis), R201C (juvenile GM1-gangliosidosis), 151T, T82M, R201H, R263S, R457Q (adult GM1-gangliosidosis), W273L, Y83H, R482H and R482C (Morquio-B disease) (Hum. Genet., 93(2), 109-114, 1994).
(§2) As a control substance, 0.5 mM N-(n-butyl)-deoxygalactonojirimycin (NB-DGJ: The Journal of Biological Chemistry, 269, 27108-27114 (1994)) was used, and the substance 18 of the present invention was used in an amount of 0.2 μM.
(§3) Specifically, after culturing the model cell for 4 days using a cell culture medium (10% FCS DMEM) containing the substance 18 of the present invention, the resulting cells were recovered and diluted such that the amount of protein in the suspension became a predetermined level, and then enzyme activity in the diluted suspension was measured. Using 4-methylumbelliferyl-β-D-galactopyranoside as the fluorescent substrate, the enzyme activity during 30 minutes was measured at 37° C.

[2] = target: T2, human mutant β-galactosidase R201C (Homo sapiens, UniProt P16278, R201C); assay: as above
T2 construct: from tissue
T2 sequence (P16278 29-677 R201C): T1 sequence (P16278 29-677 P263S) with R173C, S235P
From the text: as §1, §2, §3

[3] = target: T3, human normal β-galactosidase (GP8) (Homo sapiens, UniProt P16278); assay: β-Galactosidase activity in model cells (knockout mouse fibroblasts with transferred gene) cultured 4 days with substance; parameters: made in house; host or cells: SV40-immortalized β-galactosidase knockout mouse skin fibroblasts
T3 sequence (P16278 29-677): T1 sequence (P16278 29-677 P263S) with S235P
From the text: as §1, §2, §3

Row | enzyme activity, Control ([1]; transferred gene P263S, control substance 0.5 mM NB-DGJ) | enzyme activity, Control ([2]; transferred gene R201C, control substance 0.5 mM NB-DGJ) | Compound | Relative ratio (×100%) ([1]; P263S, substance 18 vs control) | enzyme activity ([1]; transferred gene P263S, 0.2 μM, 4 days) | enzyme activity increased in comparison with the control ([2]; R201C, 0.2 μM) | Relative ratio (×100%) ([2]; R201C, substance 18 vs control) | enzyme activity ([2]; transferred gene R201C, 0.2 μM, 4 days) | Relative ratio (×100%) ([3]; GP8, substance 18 vs control) | enzyme activity ([3]; transferred gene GP8, 0.2 μM, 4 days) | enzyme activity, Control ([3]; transferred gene GP8, control substance 0.5 mM NB-DGJ)
1 | – | – | CCCCCCCCN[C@@H]1C=C(CO)[C@H](O)C(O)[C@@H]1O (stereo partly drawn) [Substance 18, N-octyl-5a-carba-α-L-arabino-hexo-5(5a)-enopyranosylamine] | 6.58 ×100% | 0.12 | ≥ 150% | 2.43 ×100% | 48.88 | 1.05 ×100% | 78.87 | –
2 | 0.02 | 20.16 | CCCCN1C[C@H](O)[C@@H](O)[C@@H](O)[C@H]1CO [Control, N-(n-butyl)-deoxygalactonojirimycin, reference compound] | – | – | – | – | – | – | – | 74.94
